From ChEMBL document CHEMBL3132754 (Medchemcomm, 2013)

Assays:
[1] = Metabolic stability in human liver microsomes assessed as compound remaining at 200 uM measured after 1 hr by LC/MS/MS method; type: ADME; conditions: read-out: Stability
[2] = (§1) Stability in human plasma assessed as compound remaining at 5 uM after 1 hr by LC/MS/MS method; type: ADME, cell-free; conditions: read-out: Stability
[3] = tested on: MV4-11; assay: […] histone methylation in human MV4-11 cells assessed as H3K79 methylation after 4 days by Western blot analysis; type: functional, cell-based; conditions: MV4-11, 96 h
[4] = tested on: Plasma; assay: as §1; type: ADME, cell-free; conditions: 1 h, 5 µM

Row | SMILES | remaining at 1 h, 200 µM [1] | remaining at 1 h, 5 µM [2] | IC50 [3] | Stability [4]
1 | CC(C)N(CCCNC(=O)Nc1ccc(C(C)(C)C)cc1)C[C@H]1O[C@@H](n2cnc3c(N)ncnc32)[C@H](O)[C@@H]1O | 50% | 90% |  | 
2 | CC(C)N(CCCNC(=O)Nc1ccc(C(C)(C)C)cc1)CC1=C[C@@H](n2cnc3c(N)ncnc32)[C@H](O)[C@@H]1O | 50% |  | 0.2 µM | Stable
3 | CC(C)N(CCCNC(=O)Nc1ccc(C(C)(C)C)cc1)C[C@H]1C[C@@H](n2cnc3c(N)ncnc32)[C@H](O)[C@@H]1O |  |  |  | Stable
